The results in this text go back to a melting point compilation (Tetko et al.; mined from patent text by program, amines drawn as free bases though some values may be those of a salt).

A word on the melting point: it is the temperature of the solid-liquid transition.

`Cc1ccc(S(=O)(=O)NC(=O)NC2N=C(c3ccccc3)c3ccccc3N(C)C2=O)cc1` (centres undefined) showed a melting point of 244 to 246 °C. For `CCOC(=O)c1cc2cc(Oc3ccc(S(C)(=O)=O)cc3)cc(OCc3ccccc3)c2[nH]1` the value was 148 to 149 °C. With `Cc1ncccc1-c1ccc(OC2SCC(O)C(O)C2O)cn1` (centres undefined) the figure was 167 to 168 °C; with `O=C1N=NC(c2nc(Cl)c(Cl)[nH]2)=N1`, 176 to 178 °C. With `COc1cc(C)cc(OC)c1C(=O)c1ccccc1N(C)C(=O)CBr` the figure was 121 °C. Take `Cc1cc2c3c(c1)c(=O)c(C(=O)O)cn3C1CCCCC21` (centres undefined): the melting point lay within 188 to 190 °C. With `CCN(Cc1ccccc1)C(=O)Cc1c(-c2ccc(OC)cc2)nc2cc(C)ccn12` the figure was 175 to 178 °C; with `CC(C)CCC(C)Oc1c(-c2ccc(S(C)(=O)=O)cc2)cnn(-c2ccc(F)cc2)c1=O` (centres undefined), 102 to 103 °C; with `CC(C)COc1c(-c2ccc(S(C)(=O)=O)cc2)cnn(CC(F)(F)F)c1=O`, 108 to 110 °C. Take `CN(C(c1ccccc1)c1ccccc1)S(=O)(=O)CC#N`: the melting point lay in the range of 104 to 107 °C. For `Nc1ccc2ccccc2c1-c1c(P(c2ccccc2)c2ccccc2)ccc2ccccc12`, the melting point amounted to 105 °C.

Regarding `Cn1c(C(F)(F)F)cc(=O)n(-c2cc(Oc3ccc[nH]c3=O)c(Cl)cc2F)c1=O`, the melting point was determined as 181 °C.

`CN(COC(=O)Cc1ccccc1)C(=O)OC(C)(C)C` had a melting point of 96 to 98 °C. With `CCCCCCCCOC(=O)c1[nH]c2cccc3c2c1CCNC3=O` the figure was 170 to 171 °C; with `CCCCCCCCCCNC(=O)N(O)CCCC(=O)OCC`, 68 to 69 °C. With `COC(=O)CCCC(=N)Nc1[nH]c2ccccc2c1C(=O)OC` the figure was 95 °C. With `O=C(O)CC1CCCc2c1[nH]c1ccc(F)cc21` (centres undefined) the figure was 124 to 126 °C. Regarding `NCc1ccc(C(=O)O)cc1[N+](=O)[O-]`, the melting point was in the range of 235 to 237 °C. For `Cc1c(NCCN2C(=O)c3ccccc3C2=O)c(=O)n(C)c(=O)n1C` the value was 178 to 180 °C. For `CC(C)NC(=O)c1cccc(I)c1C(=O)Nc1ccc(OCC(F)(F)F)nc1` the value was 200 to 203 °C; for `COc1nc2cc(F)cc(C)c2nc1OC`, 107 to 109 °C.

In turn, `NN1CC1c1ccccc1` (centres undefined) had a melting point of 60 °C. As to `O=C1c2ccccc2C(=O)C1(CCN1CCC(c2noc3cc(F)ccc23)CC1)c1ccccc1`, the melting point was 149 to 150 °C.

Turning to `Cc1c(OCC(F)(F)F)ccnc1CS(=O)c1nc2ccccc2n1NCC(C)C` (centres undefined), the melting point is 129 to 131 °C.

In turn, `O=C(Nc1ccc(F)cc1)c1ccccn1` had a melting point of 100 to 103 °C.

Take `Cc1ccccc1S(=O)(=O)n1c(CCCC(=O)O)cc2nc(Cl)ccc21`: the melting point came out at 161 °C. With `CCC12CCC3=C(CC(C)c4cc(OC)ccc43)C1=CCC21OCCO1` (centres undefined) the figure was 116 to 119 °C; with `CCOC(=O)c1ccc(OCCCCc2cc(C)no2)cc1`, 61 °C. `N#CC(C(=O)Nc1ccccc1)C(=O)c1nn(-c2ccccc2)c2c1COc1c(CN3CCOCC3)cc(F)cc1-2` (centres undefined) yielded a melting point of 249 to 253 °C. `CNC(=S)NCCS(=O)Cc1cncn1C` (centres undefined) registered a melting point of 139 to 140 °C.

`CC(C)(C)OC(=O)NCCCCCCO` showed a melting point of 36 to 37 °C. With `Cc1nc(N2CCN(Cc3ccccc3)C2=O)sc1C(=O)NCc1ccccc1F` the figure was 167 to 168 °C; with `ON=Cc1ccc2c(c1)ncn2-c1cccc(COCc2ccccn2)c1`, 154 to 155 °C; with `COc1cc(C)cc(OCCCSCCC(=O)O)c1`, 39 to 42 °C.

`NCCCP(=O)(O)Cc1ccccc1` yielded a melting point of 69 to 72 °C.

`O=C(O)c1cc([N+](=O)[O-])ccc1NCc1ccccc1` showed a melting point of 238 to 248 °C.

`O=C(Nc1cccnn1)N1CCN(c2nc(-c3cccc(F)c3)cs2)CC1` displayed a melting point of 176 to 177 °C. With `OC1(c2ccc(-c3cccnc3)cc2)CN2CCC1CC2` (centres undefined) the figure was 172 to 173 °C; with `O=C1CCC(n2nc(-c3c(-c4ccccc4)nn4ccccc34)ccc2=O)CC1`, 138 to 140 °C; with `O=C(O)CCCc1cc2nc(Cl)ccc2n1S(=O)(=O)c1ccc(-n2cccn2)cc1`, 196 to 207 °C. With `CC(C)(C)OC(=O)COc1ccc2sc(C(=O)Nc3ccccc3NC(=O)OC(C)(C)C)cc2c1` the figure was 166 °C. With `O=[N+]([O-])c1ccc2c(c1)OC(CO)(CO)O2` the figure was 111 to 113 °C. For `COc1cccc2c1C(=O)N(CCl)S2(=O)=O`, the melting point lay in the range of 169 to 174 °C. For `CCN(C(=O)OCc1ccccc1)c1cc(Cl)c2c(c1)C(c1ccccc1F)=NC(C)(C)C(=O)N2C` the value was 150 to 151 °C. For `CC(=O)c1cccc(-c2ccc(OC[C@H](O)CCc3cccnc3)cc2)c1` the value was 58 to 60 °C; for `COc1ccc(CC(=O)Nc2c(C)c(C)c3c(c2C)C(c2ccc(C(C)C)cc2)C(C)(C)O3)cc1` (centres undefined), 171 to 173 °C. For `O=C(O)c1ccc2nc(-n3nc4c(c3O)-c3ccccc3CC4)sc2c1` the value was more than 280 °C. `O=C(c1c(F)cccc1F)N1COCN(c2ccc(S(=O)C(F)F)cc2F)C1=O` (centres undefined) had a melting point of 138 to 140 °C.

In turn, `CN(C)CCNC(=O)N1CCC(Sc2ccc(Cl)cc2)C1` (centres undefined) had a melting point of 97 to 98.5 °C. Take `CNC(=O)CNc1c(C)cccc1C`: the melting point is 52 to 54 °C. For `CCCCCCCCC1(CCCCCCCC)c2cc([N+](=O)[O-])ccc2-c2ccc([N+](=O)[O-])cc21` the value was 69 to 73 °C; for `Cc1c(C(=O)O)nc2c(cc(C)c3nc(C(=O)O)c(C)c(O)c32)c1O`, 205 to 206 °C. With `Nc1cc(CO)cc(S(N)(=O)=O)c1Cc1ccccc1` the figure was 159 to 161 °C; with `Cc1ccc(-c2nc3cc(N=C=S)ccc3o2)o1`, 110 to 121 °C. With `CNC(=S)C1=CC(C)(C(F)(F)F)Oc2ccc([N+](=O)[O-])cc21` (centres undefined) the figure was 158 to 160 °C; with `Cc1cc(SCC#Cc2ccccc2C(F)(F)F)ccc1OCC(=O)O`, 95 to 97 °C; with `COc1cc2c(c(OC)c1OC)-c1ccc(OC(=O)N3CCC(N4CCCCC4)CC3)cc1C(NC(C)=O)CC2` (centres undefined), 168 to 175 °C. As for `Cc1ccccc1CC(=NC#N)NC(NC(=O)CF)C(C)(C)C` (centres undefined), the melting point lay in the range of 151 to 152 °C.

With `CCCc1ccccc1OS(=O)(=O)c1ccc(N2CCN(C)C2=O)cc1`, the melting point lay in the range of 103 to 105 °C.

For `O=C1C(=Cc2ccccc2)CS(=O)CC1=Cc1ccccc1` (centres undefined), the melting point was 155 to 160 °C.

`CC1(C)OC(=C(C#N)C#N)C(C#N)=C1c1ccc(-n2cc(-c3ccccc3)nn2)cc1` yielded a melting point of 280 °C. For `O=C(O)c1ccc(NCCOc2ccc(Cl)cc2Cl)cc1` the value was 203 to 205 °C. For `COc1ccc(NC(=O)N(Cc2ccccc2)C2CCCCCC2)c(NC(=O)c2cc(C(C)(C)C)c(O)c(C(C)(C)C)c2)c1` the value was 125 to 130 °C. With `COc1cc(CCN2CCN(c3nsc4ccccc34)CC2)c(NC(=O)C=C(C)C)cc1OC` the figure was 58 °C. `CN(C)C=CC(=O)c1ccc(C(=O)N2Cc3cccn3Cc3ccccc32)cc1` yielded a melting point of 203 to 205 °C. For `Cc1ccc(C(=O)C2CCN(CCc3c[nH]c4ccccc34)CC2)cc1C` the value was 172 to 173 °C; for `CCCCOc1nc(N)c2[nH]c(=O)n(CCCCNS(=O)(=O)c3ccc(CCC(=O)OC)cc3)c2n1`, 150 to 152 °C; for `COC(=O)c1ccccc1-n1c(CCl)nc2cc(Cl)ccc2c1=O`, 150 to 152 °C. With `CC(C)(C)OC(=O)NCc1cccc(Nc2n[nH]c3ncnc(Nc4cccc(Cl)c4)c23)c1` the figure was 147 to 148 °C; with `COc1ccc(-c2ccc3c(n2)CCC(C)(C)C3=O)cc1`, 158 to 159 °C; with `CN(C)C(=O)COc1ccc(I)cc1`, 63 to 65 °C.

In turn, `CCCCCCCC1=CC(=O)N(c2ccccc2)C1(O)CBr` (centres undefined) returned a melting point of 152 to 154 °C. For `N#Cc1ccc(F)c(C2=Nc3ccc(-c4ccccc4F)cc3NC(=O)C2)c1` the value was 239 °C; for `CC(CCNC(=O)c1ccc(Cl)s1)n1ccnc1` (centres undefined), 141 to 143 °C; for `O=S(=O)(c1ccc(N2CCCCC2)cc1)N1CCCC1=S`, 195 to 200 °C. `Cc1cc2cc(NC(=O)NC34CC5CC(CC(C5)C3)C4)ccc2[nH]1`: the melting point lay within 146 to 152 °C. With `COc1ccc2cc(C3CCN(CC(O)COc4ccccc4C=C4CCOC4=O)CC3)ccc2c1` (centres undefined) the figure was 148 to 150 °C.

`Cc1cc(CCCCCOc2cc(Cl)c(-c3nnc(C)o3)c(Cl)c2)on1` registered a melting point of 71 to 72 °C.

Regarding `O=C(c1cccnc1)c1cc(-c2ccccc2)c(N2CCOCC2)s1`, the melting point is 180 °C.

`Cc1cc(SC2=C(O)CC(CCc3cc(Cl)c(N)c(Cl)c3)(C(C)C)OC2=O)c(C(C)(C)C)cc1N` (centres undefined) returned a melting point of 103 to 107 °C. With `COc1ccc(C(=O)N(C)Cc2cccc(-c3ccc(CC4SC(=O)NC4=O)cc3)c2)cc1` (centres undefined) the figure was 170 °C; with `CCCN1C(=O)C(C(=O)Nc2ccc(Cl)cc2)S(=O)(=O)c2ccccc21` (centres undefined), 189 to 190 °C. For `COc1ccc(C(=O)CCC2CCN(C(C)=O)CC2)cc1N` the value was 101 to 103 °C. With `CCOc1ccc(C=C(CSC(C)=O)C(=O)NCCC(=O)OCc2ccccc2)cc1` the figure was 92 °C; with `Cn1ncc(C23CCCN(CC2)C3)n1` (centres undefined), 65 to 70 °C. `CCOC(=O)CCCOc1ccccc1O` had a melting point of 37.2 to 38.4 °C. With `CCCCCCC(O)c1ccc2cc(OC)ccc2c1` (centres undefined) the figure was 71 to 74 °C; with `COCCc1sc2ncnc(N)c2c1-c1ccc(N(C(N)=O)c2ccccc2C)cc1`, 217 to 219 °C; with `NC(=O)CCCCn1ccc([N+](=O)[O-])n1`, 129 to 131 °C.
